Test results reported in US20260234188A1, “CHEMOKINE-BINDING PEPTIDES” (Oxford University Innovation Limited, priority 2022, published 2026).
Ends that are not written are not given here. Peptide text beside a SMILES is read from it.

Key:
Type in all cases: cell-based
Settings in all cases: HD2 mutant peptides 10 μM, chemokine at EC80
CXCL9 = molecular target: T1, CXCL9 (Homo sapiens, UniProt Q07325); assay: CXCL9-induced activated T-cell migration, transwell assay
T1 construct: purchased Peprotech
T1 sequence (Q07325 23-125): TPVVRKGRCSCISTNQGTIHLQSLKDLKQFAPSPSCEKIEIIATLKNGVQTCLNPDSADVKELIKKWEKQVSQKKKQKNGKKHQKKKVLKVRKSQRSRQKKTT
Protocol: (§1) FIG. 2. […] BK1.2 is described in (Darlot, 2020). […] Chemokines used are indicated by the name, followed in parenthesis by the supplier code (P in supplier code indicates Peprotech). […] All experiments were performed at EC80 doses of indicated chemokine. Data are shown as box-whisker plots of three technical and three biological replicates. Statistically significant differences (compared to control, indicated by #), using Dunnett's test with correction for multiple comparisons, are indicated by asterisks: ****=P≤0.0001, ***=P≤0.001, **=P≤0.01, *=P≤0.05.
(§2) Briefly, cell migration assays use THP1 cells (human monocyte) and primary human buffy coat white cells (consisting of neutrophil granulocytes, monocytes, and lymphocytes), and activated T-cells. THP1 cells and primary monocytes respond to CCL2, CCL3, CCL5, CCL8 and CXCL4, granulocytes to CXCL1 and CXCL8, activated T-cells to CXCL9/10/11. Assays are performed in 96-well Boyden chambers, and migrated cells counted and characterized using and ATTUNE Flow Cytometer as described. Triplicate assays are performed at the EC80 dose of each chemokine at 10 μM peptide concentration.
(§3) The J:CXCR1 cell line was generated by transfecting Jurkat cells by electroporation with PvuI-linearized plasmid D1398 and selecting with blasticidin (Sigma-Aldrich, Cat #203350, […]). […] J:CXCR1 cells were cultured in RPMI-1640 media (Gibco), supplemented with 10% FBS and 5 mM L-Glutamine with blasticidin. For J:CXCR1 migration assays, 300,000 cells/well were added to the top chamber of a 3 μm Transwell insert (Corning) in 50 μL of migration media (RPMI-1640, 0.5% FBS, 4 mM L-Glutamine, 0.05% DMSO). The bottom chamber contained 150 μL of chemokine, with or without peptide. Cells were migrated at 37° C. in 5% CO2 for 4 hours. The plate was incubated on a shaking platform for 10 minutes, 800 rpm, at 37° C., and 150 μL from the bottom of the plate transferred into a U-bottom plate containing 50 μL of migration media. Cell counts were determined by Attune NxT Flow Cytometer Plate Reader (ThermoFisher), based on cell size parameters FSC-H/SSC-H. Experiments were performed in 3 technical and 3 biological replicates. THP-1 migration assays were carried out using methods known in the art. Activated T-cell assays were carried out using methods known in the art, with the following modifications in the isolation process. Peripheral blood cells were obtained from leucocyte cones (NHS Blood Transfusion Services), following which, T-cells were isolated using two rounds of human CD8+ T-cell isolation kit (480011, BioLegend). At day 10 after activation, T-cells were frozen at 20 E6 cells/ml in TexMACS medium supplemented with 10% DMSO (D2650, Sigma) in liquid nitrogen. Prior to use, activated T-cells were recovered for 24 hours in TexMACs medium at 0.3 E6 cells/ml and incubated at 37° C. in 5% CO2. Chemokine sources are described in Supplementary information Table 3. Statistical significances between control experimental groups was evaluated using Dunnett's test. IC50 experiments were performed at the EC80 dose of chemokine. EC80 was calculated by fitting a chemokine dose-response curve with 3 parameters (fixing the top to 100%). IC50 was calculated by fitting an inhibitor response curve with 4 parameters.

CXCL11 = molecular target: T2, CXCL11 (Homo sapiens, UniProt O14625); assay: CXCL11-induced activated T-cell migration, transwell assay
T2 construct: purchased Peprotech
T2 sequence (O14625 22-94): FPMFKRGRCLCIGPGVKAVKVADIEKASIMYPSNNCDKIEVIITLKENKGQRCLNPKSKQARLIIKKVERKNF
Protocol: as §1, §2, §3

CCL15 = molecular target: T3, CCL15 (Homo sapiens, UniProt Q16663); assay: CCL15-induced cell migration assay
T3 sequence (Q16663 22-113): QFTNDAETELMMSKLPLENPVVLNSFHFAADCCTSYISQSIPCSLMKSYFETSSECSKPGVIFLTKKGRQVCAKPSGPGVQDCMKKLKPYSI
Protocol: (§4) FIGS. 24 and 25. Effect of exemplar mutant HD2 peptides on chemotaxis. Box-whisker plots showing the effect of the exemplar mutant HD2 peptides on cell migration induced by indicated human chemokines. All experiments were performed as at least three technical and between one to three biological replicates, and individual data points are indicated. […] Chemokine and cell type names are indicated. HD2SCR is a scrambled version of HD2 used as negative control. All peptides were at 10 μM final concentration and chemokines at EC80 doses. Statistically significant differences (compared to control, coloured blue), using Dunnett's test with correction for multiple comparisons, are indicated by asterisks: ****=P≤0.0001, ***=P≤0.001, **=P≤0.01, *=P≤0.05.
(§5) The J:CXCR1 cell line was generated by transfecting Jurkat cells by electroporation with PvuI-linearized plasmid D1398 and selecting with blasticidin (Sigma-Aldrich, Cat #203350, […]). […] J:CXCR1 cells were cultured in RPMI-1640 media (Gibco), supplemented with 10% FBS and 5 mM L-Glutamine with blasticidin. For J:CXCR1 migration assays, 300,000 cells/well were added to the top chamber of a 3 μm Transwell insert (Corning) in 50 μL of migration media (RPMI-1640, 0.5% FBS, 4 mM L-Glutamine, 0.05% DMSO). […] Cell counts were determined by Attune NxT Flow Cytometer Plate Reader (ThermoFisher), based on cell size parameters FSC-H/SSC-H. Experiments were performed in 3 technical and 3 biological replicates. […] Statistical significances between control experimental groups was evaluated using Dunnett's test. […] EC80 was calculated by fitting a chemokine dose-response curve with 3 parameters (fixing the top to 100%). IC50 was calculated by fitting an inhibitor response curve with 4 parameters.
(§6) Migration assays using THP1, activated T-cell (ATC) and J:CXCR1 (Jurkat cells stably transfected with CXCR1 receptor) were performed as described previously. […] EC80 was calculated by fitting a chemokine dose-response curve with 3 parameters (fixing the top to 100%). IC50 was calculated by fitting an inhibitor response curve with 4 parameters. […]

CCL21 = molecular target: T4, CCL21 (Homo sapiens, UniProt O00585); assay: CCL21-induced cell migration assay
T4 sequence (O00585 24-134): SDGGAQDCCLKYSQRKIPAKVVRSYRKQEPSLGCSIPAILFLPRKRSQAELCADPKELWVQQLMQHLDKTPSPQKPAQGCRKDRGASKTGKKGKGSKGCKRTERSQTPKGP
Protocol: as §4, §3
Migration assays using THP1, activated T-cell (ATC) and J:CXCR1 (Jurkat cells stably transfected with CXCR1 receptor) were performed as described previously. IC50 experiments were performed at the EC80 dose of chemokine. EC80 was calculated by fitting a chemokine dose-response curve with 3 parameters (fixing the top to 100%). IC50 was calculated by fitting an inhibitor response curve with 4 parameters. R-packages used were ggupset_0.3.0, DescTools_0.99.44, and drc_3.0-1.

CXCL5 = molecular target: T5, CXCL5 (Homo sapiens, UniProt P42830); assay: CXCL5-induced cell migration assay
T5 sequence (P42830 37-114): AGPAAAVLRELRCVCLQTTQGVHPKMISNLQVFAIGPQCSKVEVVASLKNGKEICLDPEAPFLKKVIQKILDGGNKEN
Protocol: as §4, §5, §6

CCL14 = molecular target: T6, CCL14 (Homo sapiens, UniProt Q16627); assay: CCL14-induced cell migration assay
T6 sequence (Q16627 20-93): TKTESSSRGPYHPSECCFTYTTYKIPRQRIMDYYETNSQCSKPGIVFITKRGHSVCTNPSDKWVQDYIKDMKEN
Protocol: as §4, with “Statistically significant differences (compared to control, coloured blue), using Dunnett's test with correction for multiple comparisons, are indicated by asterisks: ****=P≤0.0001, ***=P≤0.001, **=P≤0.01, *=P≤0.05.” left out
The J:CXCR1 cell line was generated by transfecting Jurkat cells by electroporation with PvuI-linearized plasmid D1398 and selecting with blasticidin (Sigma-Aldrich, Cat #203350, 5 g/mL). […] Cell counts were determined by Attune NxT Flow Cytometer Plate Reader (ThermoFisher), based on cell size parameters FSC-H/SSC-H. Experiments were performed in 3 technical and 3 biological replicates. […] Statistical significances between control experimental groups was evaluated using Dunnett's test. […] EC80 was calculated by fitting a chemokine dose-response curve with 3 parameters (fixing the top to 100%). IC50 was calculated by fitting an inhibitor response curve with 4 parameters. […]

Measured: chemotaxis compared with the parental HD2 peptide

EEDDYTAYWPLTCYFT [A9W]
not listed: CCL14
significant reduction in chemotaxis: all other assays above

EEDDWTAYAPLTCYFT-NH2 [HD2_W5, EEDDWTAYAPLTCYFT]
significant reduction in chemotaxis: CXCL9 | CXCL11 | CCL21

CC(C)C[C@H](NC(=O)[C@@H]1CCCN1C(=O)[C@H](C)NC(=O)[C@H](Cc1ccc(O)cc1)NC(=O)[C@H](C)NC(=O)[C@@H](NC(=O)[C@H](Cc1ccc(O)cc1)NC(=O)[C@H](CC(=O)O)NC(=O)[C@H](CC(=O)O)NC(=O)[C@H](CCC(=O)O)NC(=O)[C@@H](N)CCC(=O)O)[C@@H](C)O)C(=O)N[C@H](C(=O)N[C@@H](CS)C(=O)N[C@@H](Cc1ccc(O)cc1)C(=O)N[C@@H](Cc1ccccc1)C(=O)N[C@@H](CS)C(N)=O)[C@@H](C)O [HD2_C16, EEDDYTAYAPLTCYFC] (H-EEDDYTAYAPLTCYFC-NH2; N-terminus assumed)
significant reduction in chemotaxis: all assays above

EEDDYWAYAPLTCYFT [HD2_W6]
not listed: CCL14
significant reduction in chemotaxis: all other assays above
